The nature of the first data set: LogP by HPLC on reversed phase columns (EEC directive 79/831 Annex V.A8). As to conditions: Table 1, formula (I); LC-UV, acidic range, 0.1% formic acid in water and acetonitrile. As for the experimental part: Measurement of LogP values was performed according to EEC directive 79/831 Annex V.A8 by HPLC (High Performance Liquid Chromatography) on reversed phase columns with the following methods:
Lambda-max-values were determined using UV-spectra from 200 nm to 400 nm and the peak values of the chromatographic signals.
Regarding `CC(O)(Cn1cncn1)c1cnc(Oc2ccc(Cl)cc2)cc1Cl` (racemic) [I.08], the “LogP [a]” value is 2.50^[a].

As for `CC(O)(Cn1cncn1)c1ccc(Oc2ccc(Cl)cc2)nc1Cl` (racemic) [I.09], the “LogP [a]” value was 2.66^[a].

Regarding `OC(Cn1cncn1)c1cnc(Oc2ccc(S(F)(F)(F)(F)F)cc2)cc1C(F)(F)F` (racemic) [I.36], the “LogP [a]” value was 3.15^[a].

For the compound `OC(Cn1cncn1)c1cnc(Oc2ccc(C(F)(F)F)cc2)cc1C(F)(F)F` (racemic) [I.47], the “LogP [a]” value was 2.84^[a].

Turning to `CC(O)(Cn1cncn1)c1ccc(Oc2ccc(OC(F)(F)F)cc2)nc1C(F)(F)F` (racemic) [I.95], the “LogP [a]” value was 2.98^[a].

`CC(O)(Cn1cncn1)c1ccc(Oc2ccc(Cl)cc2)nc1C(F)(F)F` (racemic) [I.96]: the “LogP [a]” value was 2.68^[a].

Regarding `OC(Cn1cncn1)(c1ccc(Oc2ccc(S(F)(F)(F)(F)F)cc2)nc1C(F)(F)F)C1CC1` (racemic) [I.97], the “LogP [a]” value is 3.80^[a].

Regarding `CCCCC(O)(Cn1cncn1)c1ccc(Oc2ccc(Cl)cc2)nc1C(F)(F)F` (racemic) [I.98], the “LogP [a]” value is 3.87^[a].

Regarding `CCCC(O)(Cn1cncn1)c1ccc(Oc2ccc(Cl)cc2)nc1C(F)(F)F` (racemic) [I.100], the “LogP [a]” value was 3.55^[a].

With `CCC(O)(Cn1cncn1)c1ccc(Oc2ccc(Cl)cc2)nc1C(F)(F)F` (racemic) [I.103], the “LogP [a]” value is 3.19^[a].

As for `CC(O)(Cn1cncn1)c1cnc(Oc2ccc(Cl)cc2)cc1C(F)(F)F` (single isomer, unassigned) [I.45], the “LogP [a]” value was 2.84^[a].

Consider `CC(O)(Cn1cncn1)c1cnc(Oc2ccc(Cl)cc2)cc1C(F)(F)F` (single isomer, unassigned) [I.46], for which the “LogP [a]” value is 2.93^[a].

In the case of `CC(O)(Cn1cncn1)c1ccc(Oc2ccc(Cl)cc2)nc1Cl` (single isomer, unassigned) [I.51], the “LogP [a]” value was 2.62^[a].

Consider `CC(O)(Cn1cncn1)c1ccc(Oc2ccc(Cl)cc2)nc1Cl` (single isomer, unassigned) [I.52], for which the “LogP [a]” value was 2.62^[a].

With `CC(O)(Cn1cncn1)c1cnc(Oc2ccc(Cl)cc2)cc1Cl` (single isomer, unassigned) [I.53], the “LogP [a]” value was 2.53^[a].

Take `CC(O)(Cn1cncn1)c1cnc(Oc2ccc(Cl)cc2)cc1Cl` (single isomer, unassigned) [I.54]: the “LogP [a]” value was 2.53^[a].

Turning to `OC(Cn1cncn1)c1cnc(Oc2ccc(C(F)(F)F)cc2)cc1C(F)(F)F` (single isomer, unassigned) [I.72], the “LogP [a]” value is 2.86^[a].

As to `OC(Cn1cncn1)c1cnc(Oc2ccc(S(F)(F)(F)(F)F)cc2)cc1C(F)(F)F` (single isomer, unassigned) [I.83], the “LogP [a]” value was 3.11^[a].

Regarding `OC(Cn1cncn1)(c1ccc(Oc2ccc(Br)cc2)nc1C(F)(F)F)C1CC1` (single isomer, unassigned) [I.84], the “LogP [a]” value was 3.41 ^[a].

As for `OC(Cn1cncn1)c1cnc(Oc2ccc(S(F)(F)(F)(F)F)cc2)cc1C(F)(F)F` (single isomer, unassigned) [I.86], the “LogP [a]” value is 3.11^[a].

As for `OC(Cn1cncn1)c1cnc(Oc2ccc(C(F)(F)F)cc2)cc1C(F)(F)F` (single isomer, unassigned) [I.92], the “LogP [a]” value is 2.86^[a].

With `OC(Cn1cncn1)(c1ccc(Oc2ccc(Br)cc2)nc1C(F)(F)F)C1CC1` (single isomer, unassigned) [I.99], the “LogP [a]” value is 3.41^[a].

For the compound `CC(O)(Cn1cncn1)c1ccc(Oc2ccc(Br)cc2)nc1C(F)(F)F` (single isomer, unassigned) [I.101], the “LogP [a]” value was 2.94^[a].

For the compound `CC(O)(Cn1cncn1)c1ccc(Oc2ccc(Br)cc2)nc1C(F)(F)F` (single isomer, unassigned) [I.102], the “LogP [a]” value was 2.94^[a].

On to `CC(O)(Cn1cncn1)c1cnc(Oc2ccccc2)cc1Cl` (centres unmarked) [I.05], for which the “LogP [a]” value was found to be 2.10.

For `CC(O)(Cn1cncn1)c1ncc(Oc2ccccc2)cc1Cl` (centres unmarked) [I.06], the “LogP [a]” value turned out to be 2.47.

For `CC(O)(Cn1cncn1)c1ccc(Oc2ccccc2)nc1Cl` (centres unmarked) [I.07], the “LogP [a]” value was found to be 2.14.

Consider `OC(Cn1cncn1)c1ccc(Oc2ccc(Cl)c(Cl)c2)nc1Cl` (centres unmarked) [I.10], for which the “LogP [a]” value was 2.80^[a].

On to `OC(Cn1cncn1)c1ccc(Oc2ccc(OC(F)(F)F)c(Cl)c2)nc1Cl` (centres unmarked) [I.11], for which the “LogP [a]” value was 3.11^[a].

Turning to `OC(Cn1cncn1)c1ccc(Oc2ccc(OC(F)(F)F)cc2)nc1Cl` (centres unmarked) [I.12], the “LogP [a]” value is 2.73^[a].

`OC(Cn1cncn1)c1ccc(Oc2ccccc2)nc1Cl` (centres unmarked) [I.13]: the “LogP [a]” value was 1.98^[a].

In the case of `OC(Cn1cncn1)c1ccc(Oc2ccc(Cl)cc2)nc1Cl` (centres unmarked) [I.14], the “LogP [a]” value was 2.42^[a].

As to `Cc1cc(Cl)ccc1Oc1ccc(C(O)Cn2cncn2)c(Cl)n1` (centres unmarked) [I.15], the “LogP [a]” value is 2.75^[a].

Regarding `Cc1ccc(Oc2ccc(C(O)Cn3cncn3)c(Cl)n2)cc1Cl` (centres unmarked) [I.16], the “LogP [a]” value is 2.73^[a].

As for `OC(Cn1cncn1)c1ccc(Oc2ccc(F)cc2)nc1Cl` (centres unmarked) [I.17], the “LogP [a]” value was 2.08^[a].

For `OC(Cn1cncn1)c1ccc(Oc2ccc(F)cc2F)nc1Cl` (centres unmarked) [I.18], the “LogP [a]” value was 2.18^[a].

As to `OC(Cn1cncn1)c1ccc(Oc2ccccc2F)nc1Cl` (centres unmarked) [I.19], the “LogP [a]” value was 2.08^[a].

Regarding `OC(Cn1cncn1)c1ccc(Oc2cc(F)c(F)c(F)c2)nc1Cl` (centres unmarked) [I.20], the “LogP [a]” value is 1.65^[a].

As for `OC(Cn1cncn1)c1cnc(Oc2ccccc2)cc1Cl` (centres unmarked) [I.21], the “LogP [a]” value is 1.92^[a].

On to `OC(Cn1cncn1)c1ncc(Oc2ccccc2)cc1Cl` (centres unmarked) [I.22], for which the “LogP [a]” value is 2.01^[a].

Consider `OC(Cn1cncn1)c1ccc(Oc2ccc(Cl)cc2Cl)nc1Cl` (centres unmarked) [I.23], for which the “LogP [a]” value is 2.75^[a].

As to `CC(O)c1ccc(Oc2ccc(C(O)Cn3cncn3)c(Cl)n2)cc1` (centres unmarked) [I.24], the “LogP [a]” value is 1.48^[a].

For the compound `OC(Cn1cncn1)c1ccc(Oc2ccc(Cl)cc2)nc1C(F)F` (centres unmarked) [I.25], the “LogP [a]” value is 2.44^[a].

Consider `OC(Cn1cncn1)c1ccc(Oc2ccc(Cl)cc2)nc1OC(F)(F)F` (centres unmarked) [I.26], for which the “LogP [a]” value was 2.92^[a].

As to `CC(O)(Cn1cncn1)c1ccc(Oc2ccc(F)cc2)nc1Cl` (centres unmarked) [I.27], the “LogP [a]” value was 2.28^[a].

Take `Cc1cc(Cl)ccc1Oc1ccc(C(C)(O)Cn2cncn2)c(Cl)n1` (centres unmarked) [I.28]: the “LogP [a]” value was 2.94^[a].

In the case of `Cc1ccc(Oc2ccc(C(C)(O)Cn3cncn3)c(Cl)n2)cc1Cl` (centres unmarked) [I.29], the “LogP [a]” value is 3.00^[a].

For the compound `COc1ccc(Oc2ccc(C(O)Cn3cncn3)c(Cl)n2)c(Cl)c1` (centres unmarked) [I.30], the “LogP [a]” value is 2.32^[a].

As to `COc1ccc(Oc2ccc(C(C)(O)Cn3cncn3)c(Cl)n2)c(Cl)c1` (centres unmarked) [I.31], the “LogP [a]” value is 2.56^[a].

With `CC(O)(Cn1cncn1)c1ccc(Oc2ccc(Cl)c(Cl)c2)nc1Cl` (centres unmarked) [I.32], the “LogP [a]” value was 3.09^[a].

In the case of `CC(O)(Cn1cncn1)c1ccc(Oc2ccc(Cl)cc2)nc1OC(F)(F)F` (centres unmarked) [I.33], the “LogP [a]” value was 3.29^[a].

`OC(Cn1cncn1)c1ccc(Oc2ccc(S(F)(F)(F)(F)F)cc2)nc1Cl` (centres unmarked) [I.34]: the “LogP [a]” value is 2.90^[a].

On to `CC(O)(Cn1cncn1)c1ccc(Oc2ccc(S(F)(F)(F)(F)F)cc2)nc1Cl` (centres unmarked) [I.35], for which the “LogP [a]” value was 3.17^[a].

The same data set, now with this note: Table 1, formula (I); LC-UV, neutral range, 0.001 molar ammonium acetate in water and acetonitrile.
With `CC(O)(Cn1cncn1)c1cnc(Oc2ccccc2)cc1Cl` (centres unmarked) [I.05], the “LogP [b]” value is on record as 2.06.

Consider `CC(O)(Cn1cncn1)c1ncc(Oc2ccccc2)cc1Cl` (centres unmarked) [I.06], for which the “LogP [b]” value amounted to 2.43.

On to `CC(O)(Cn1cncn1)c1ccc(Oc2ccccc2)nc1Cl` (centres unmarked) [I.07], for which the “LogP [b]” value was determined as 2.09.

The values are drawn from US20200008426A1, “ACTIVE COMPOUND COMBINATIONS” (BAYER AKTIENGESELLSCHAFT, priority 2017, published 2020).
